Assay results reported in PubChem BioAssay (NCI).
Several values for one entry are separate records, joined by “and”; a condition that tells them apart may be missing. Identical values can stand only once.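 Where inhibition never reached the appropriate level, the endpoint shown equals the highest concentration tested. Otherwise, values were interpolated linearly from a five-concentration, 48-hour dose response in 96-well plates. GI50: concentration for 50% inhibition of growth. TGI is the concentration that stops growth completely.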

The molecules below were run on SK-OV-3 ovarian (assay: NCI-60 cell line screen, 48 h).
COc1ccc(OC)c2c1[nH]c(=O)c1c3ccccc3cn21 gave a GI50 of 1.47 µM and a TGI of 2.97 µM.
For COc1cccc2c1C(=O)c1c(O)c3c(c(O)c1C2=O)C[C@@](O)(C(=O)CO)C[C@@H]3OC1CC(N)CC(C)O1 (some centres undefined), the GI50 was 0.0837 µM and the TGI was 0.94 µM and 3.52 µM.
In the case of CN(C)CCNC(=O)c1cccc2ccc(-c3ccc(O)cc3)nc12, the TGI is reported as 15.7 µM and 9.75 µM.
COc1cc(Nc2ncccc2C(=O)NCc2cn(Cc3cccc(Oc4ccccc4)c3)nn2)cc(OC)c1 showed a GI50 of 4.33 µM and a TGI of over 100 µM.
COc1cccc(C2CC(C)(O)Oc3cc4c(cc32)OCO4)c1O (centres undefined) gave a TGI of over 100 µM.
For Cn1cc(C2=C(c3ccc(N)cc3)C(=O)NC2=O)c2ccccc21, the GI50 was 13.9 µM and the TGI was over 25 µM.
Molecule Cc1cc(Cl)cc(OCCn2cc(F)cn2)c1-c1nc(N)nc2c1CN(C(=O)NCC(C)(F)F)C2 has a GI50 of 0.0492 µM and a TGI of over 100 µM.
COc1ccc(/C=C\[N+](=O)[O-])cc1OC showed a GI50 of 13.4 µM and a TGI of 26.2 µM.
CCN(CC)CCC(CNc1ccnc2cc(Cl)ccc12)c1ccc(Cl)cc1 (centres undefined) gave a GI50 of 2.1 µM and a TGI of 5.4 µM.
For COc1cccc(F)c1C(=O)c1cnc(NC2CCN(S(C)(=O)=O)CC2)nc1N, the GI50 was 13 µM and the TGI was over 25 µM.
COc1cc(OCc2cccc(-c3ccc(C(O)c4nccs4)cc3)c2C)cc(OC)c1C=O (centres undefined) gave a GI50 of 6.07 µM and a TGI of 20.9 µM.
With COC(=O)c1ccc2c(c1)nc(NC(=O)c1ccccc1)n2CCCc1ccccc1 the GI50 was 7.63 µM and the TGI was over 100 µM.
Work on O=C(O)COc1ccc2c(=O)c3sc4c(=O)c5ccccc5c(=O)c4c3c(=O)c2c1 yielded a GI50 of 16.6 µM and a TGI of 43.9 µM.
O=C(Nc1ccc2ncccc2c1)Nc1ccc2ncccc2c1 gave a TGI of over 100 µM.
CC1(C)S[C@@H]2[C@H](NC(=O)C3(N)CCCCC3)C(=O)N2[C@H]1C(=O)O showed a TGI of over 100 µM.
Molecule NC(=O)/C=C/C(=O)c1c(Cl)cccc1Cl has a GI50 of 2.6 µM and a TGI of 6.38 µM.
Molecule CC1(C)N=C(N)N=C(N)N1c1ccc(CCCCc2ccc(Cl)cc2S(=O)(=O)F)c(Cl)c1 has a GI50 of 4.3 µM and a TGI of 18.9 µM.
For O=C(Nc1ccc(Nc2ccncc2)cc1)c1ccc([N+](=O)[O-])cc1, the GI50 was 5.85 µM and the TGI was 19.8 µM.
C(=NCCN1CCOCC1)=NC1CCCCC1 showed a TGI of over 100 µM.
With COc1ccccc1/C=N\N/C(N)=N\N=C\c1ccccc1OC the GI50 was 0.484 µM and the TGI was 7.62 µM.
Work on Oc1ccc(Nc2ncnc3c2sc2ncccc23)cc1 yielded a GI50 of 0.168 µM and a TGI of over 40.2 µM.
Work on COc1cccc(CC(C)=C(c2ccc(OCCN(C)C)cc2)c2ccc(OCCN(C)C)cc2)c1 yielded a GI50 of 5.66 µM and a TGI of 10.4 µM.
COC(=O)COc1ccccc1/C=C1\N=C(c2ccccc2)N(c2cc(C(F)(F)F)ccc2Cl)C1=O was tested, and the GI50 was 57.7 µM and the TGI was over 100 µM.
Work on C=C1C(=O)OC2CC(C)C(C(CC(C)=O)OC(C)=O)=CCC12 (centres undefined) yielded a TGI of over 100 µM.
CC(=O)OC1COC(Oc2c(C)c3c4c(c2O)[C@@H](C)CC[C@@H]4[C@@H](C)C[C@H]3C=C(C)C)C(O)C1OC(C)=O (some centres undefined) showed a GI50 of 20.8 µM and a TGI of 37.1 µM.
S=C(Nc1ccc(Cl)cc1)Nc1ccc(-c2nc3ccccc3s2)cc1 showed a GI50 of 24.9 µM and a TGI of 63.1 µM.
COC(=O)C[C@](O)(CCCC(C)(C)O)C(=O)O[C@@H]1C(OC)=C[C@]23CCCN2CCc2cc4c(cc2[C@H]13)OCO4 was tested, and the GI50 was 0.0284 µM and the TGI was 1.82 µM and 0.395 µM.

What follows are molecules tested on HOP-92 NSCLC (assay: NCI-60 cell line screen, 48 h).
With COc1ccc(OC)c2c1[nH]c(=O)c1c3ccccc3cn21 the GI50 was 1.5 µM and the TGI was 3.31 µM.
COc1cccc2c1C(=O)c1c(O)c3c(c(O)c1C2=O)C[C@@](O)(C(=O)CO)C[C@@H]3OC1CC(N)CC(C)O1 (some centres undefined) was tested, and the GI50 was 0.0638 µM and the TGI was 0.275 µM and 0.353 µM.
CN(C)CCNC(=O)c1cccc2ccc(-c3ccc(O)cc3)nc12 was tested, and the TGI was 11.3 µM and 11.6 µM.
For COc1cc(Nc2ncccc2C(=O)NCc2cn(Cc3cccc(Oc4ccccc4)c3)nn2)cc(OC)c1, the GI50 was 46.7 µM and the TGI was over 100 µM.
COc1cccc(C2CC(C)(O)Oc3cc4c(cc32)OCO4)c1O (centres undefined) showed a TGI of 92.5 µM.
Work on Cn1cc(C2=C(c3ccc(N)cc3)C(=O)NC2=O)c2ccccc21 yielded a GI50 of over 25 µM and a TGI of over 25 µM.
In the case of Cc1cc(Cl)cc(OCCn2cc(F)cn2)c1-c1nc(N)nc2c1CN(C(=O)NCC(C)(F)F)C2, the GI50 is reported as 0.192 µM and the TGI is reported as 0.728 µM.
Molecule COc1ccc(/C=C\[N+](=O)[O-])cc1OC has a GI50 of 12.4 µM and a TGI of 48.4 µM.
Molecule CCN(CC)CCC(CNc1ccnc2cc(Cl)ccc12)c1ccc(Cl)cc1 (centres undefined) has a GI50 of 0.995 µM and a TGI of 3.19 µM.
Molecule COc1cccc(F)c1C(=O)c1cnc(NC2CCN(S(C)(=O)=O)CC2)nc1N has a GI50 of 1.05 µM and a TGI of 9.15 µM.
In the case of COc1cc(OCc2cccc(-c3ccc(C(O)c4nccs4)cc3)c2C)cc(OC)c1C=O (centres undefined), the GI50 is reported as 2.19 µM and the TGI is reported as 8.52 µM.
COC(=O)c1ccc2c(c1)nc(NC(=O)c1ccccc1)n2CCCc1ccccc1 gave a GI50 of 6 µM and a TGI of over 100 µM.
In the case of O=C(O)COc1ccc2c(=O)c3sc4c(=O)c5ccccc5c(=O)c4c3c(=O)c2c1, the GI50 is reported as 18.9 µM and the TGI is reported as 43.2 µM.
O=C(Nc1ccc2ncccc2c1)Nc1ccc2ncccc2c1 gave a TGI of over 100 µM.
For CC1(C)S[C@@H]2[C@H](NC(=O)C3(N)CCCCC3)C(=O)N2[C@H]1C(=O)O, the TGI was over 100 µM.
For NC(=O)/C=C/C(=O)c1c(Cl)cccc1Cl, the GI50 was 0.574 µM and the TGI was 1.94 µM.
Work on CC1(C)N=C(N)N=C(N)N1c1ccc(CCCCc2ccc(Cl)cc2S(=O)(=O)F)c(Cl)c1 yielded a GI50 of 1.32 µM and a TGI of 12.6 µM.
In the case of O=C(Nc1ccc(Nc2ccncc2)cc1)c1ccc([N+](=O)[O-])cc1, the GI50 is reported as 4.96 µM and the TGI is reported as 21.7 µM.
For C(=NCCN1CCOCC1)=NC1CCCCC1, the TGI was over 100 µM.
COc1ccccc1/C=N\N/C(N)=N\N=C\c1ccccc1OC gave a GI50 of 0.578 µM and a TGI of 31.6 µM.
Oc1ccc(Nc2ncnc3c2sc2ncccc23)cc1 gave a GI50 of 0.08 µM and a TGI of 11.6 µM.
In the case of COc1cccc(CC(C)=C(c2ccc(OCCN(C)C)cc2)c2ccc(OCCN(C)C)cc2)c1, the GI50 is reported as 0.865 µM and the TGI is reported as 4.48 µM.
Molecule COC(=O)COc1ccccc1/C=C1\N=C(c2ccccc2)N(c2cc(C(F)(F)F)ccc2Cl)C1=O has a GI50 of 33.2 µM and a TGI of over 100 µM.
C=C1C(=O)OC2CC(C)C(C(CC(C)=O)OC(C)=O)=CCC12 (centres undefined) showed a TGI of 21.2 µM.
For CC(=O)OC1COC(Oc2c(C)c3c4c(c2O)[C@@H](C)CC[C@@H]4[C@@H](C)C[C@H]3C=C(C)C)C(O)C1OC(C)=O (some centres undefined), the GI50 was 16.3 µM and the TGI was 35.1 µM.
With S=C(Nc1ccc(Cl)cc1)Nc1ccc(-c2nc3ccccc3s2)cc1 the GI50 was 17.2 µM and the TGI was 45.5 µM.
In the case of COC(=O)C[C@](O)(CCCC(C)(C)O)C(=O)O[C@@H]1C(OC)=C[C@]23CCCN2CCc2cc4c(cc2[C@H]13)OCO4, the GI50 is reported as 0.0224 µM and the TGI is reported as 0.633 µM and 0.156 µM.

The molecules below were run on RPMI-8226 leukemia (assay: NCI-60 cell line screen, 48 h).
Molecule COc1ccc(OC)c2c1[nH]c(=O)c1c3ccccc3cn21 has a GI50 of 1.07 µM and a TGI of 3.21 µM.
COc1cccc2c1C(=O)c1c(O)c3c(c(O)c1C2=O)C[C@@](O)(C(=O)CO)C[C@@H]3OC1CC(N)CC(C)O1 (some centres undefined) was tested, and the GI50 was 0.0178 µM and 0.0704 µM and the TGI was 0.547 µM and 1.72 µM.
CN(C)CCNC(=O)c1cccc2ccc(-c3ccc(O)cc3)nc12 showed a TGI of 8.56 µM.
COc1cc(Nc2ncccc2C(=O)NCc2cn(Cc3cccc(Oc4ccccc4)c3)nn2)cc(OC)c1 gave a GI50 of 5.25 µM and a TGI of over 100 µM.
In the case of COc1cccc(C2CC(C)(O)Oc3cc4c(cc32)OCO4)c1O (centres undefined), the TGI is reported as over 78.2 µM.
Cn1cc(C2=C(c3ccc(N)cc3)C(=O)NC2=O)c2ccccc21 was tested, and the GI50 was over 23.5 µM and the TGI was over 25 µM.
Work on Cc1cc(Cl)cc(OCCn2cc(F)cn2)c1-c1nc(N)nc2c1CN(C(=O)NCC(C)(F)F)C2 yielded a TGI of over 100 µM.
COc1ccc(/C=C\[N+](=O)[O-])cc1OC gave a GI50 of 2.06 µM and a TGI of 5.28 µM.
In the case of CCN(CC)CCC(CNc1ccnc2cc(Cl)ccc12)c1ccc(Cl)cc1 (centres undefined), the GI50 is reported as 1.02 µM and the TGI is reported as 3.67 µM.
Molecule COc1cccc(F)c1C(=O)c1cnc(NC2CCN(S(C)(=O)=O)CC2)nc1N has a GI50 of 1.96 µM and a TGI of 11.3 µM.
COc1cc(OCc2cccc(-c3ccc(C(O)c4nccs4)cc3)c2C)cc(OC)c1C=O (centres undefined) gave a GI50 of 1.34 µM and a TGI of 5.47 µM.
Work on COC(=O)c1ccc2c(c1)nc(NC(=O)c1ccccc1)n2CCCc1ccccc1 yielded a GI50 of 5.31 µM and a TGI of over 100 µM.
Molecule O=C(O)COc1ccc2c(=O)c3sc4c(=O)c5ccccc5c(=O)c4c3c(=O)c2c1 has a GI50 of 27.6 µM and a TGI of 77.6 µM.
